Where “and” joins values, the source holds several entries; their conditions need not be identical. Identical values can stand only once. Toxic doses and inconclusive results are not listed.
Test system: P388 leukemia ip, CD2F1 mice, survival T/C
Experiment: NCI In Vivo Anticancer Drug Screen. Data for tumor model P388 Leukemia (intraperitoneal) in CD2F1 (CDF1) mice
Conditions: endpoint: median survival time, higher = longer survival
Procedure, shortened: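 Mice carrying the transplanted tumor received test compound or vehicle. Survival was recorded in each group, and the value is the treated-group measurement divided by that of the vehicle-treated control group.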

[1] = dose: 100.0 mg/kg/injection, schedule: Q04DX003 (ip), vehicle: saline with Tween-80
[2] = dose: 400.0 mg/kg/injection, schedule: Q04DX003 (ip), vehicle: saline with Tween-80
[3] = dose: 50.0 mg/kg/injection, schedule: Q01DX005 (ip), vehicle: saline
[4] = dose: 12.5 mg/kg/injection, schedule: Q01DX009 (ip), vehicle: Klucel (hydroxypropylcellulose) (HPC)
[5] = dose: 60.0 mg/kg/injection, schedule: Q01DX005 (ip), vehicle: saline
[6] = dose: 120.0 mg/kg/injection, schedule: Q01DX005 (ip), vehicle: saline
[7] = dose: 240.0 mg/kg/injection, schedule: Q01DX005 (ip), vehicle: saline
[8] = dose: 50.0 mg/kg/injection, schedule: Q04DX003 (ip), vehicle: saline with Tween-80

Compound: Nc1ccn(C2OC(COP(=O)(O)O)C(O)C2O)c(=O)n1 (stereo not drawn)
- T/C [1]: 150 % of control
- T/C (dose: 264.0 mg/kg/injection, schedule: Q04DX003 (ip), vehicle: saline with Tween-80): 181 % of control
- T/C [2]: 166 % of control and 177 % of control
- T/C (dose: 600.0 mg/kg/injection, schedule: Q04DX003 (ip), vehicle: saline with Tween-80): 209 % of control

Compound: CC1CCC2(C)CCC3(C)C4=CCC5C(C)(C)C(O)CCC5(C)C4CCC3(C)C2C1C (stereo not drawn)
- T/C (dose: 200.0 mg/kg/injection, schedule: Q04DX003 (ip), vehicle: other): 95 % of control
- T/C (dose: 400.0 mg/kg/injection, schedule: Q04DX003 (ip), vehicle: other): 100 % of control

Compound: COc1ccc(N2C(=O)CC(c3cc(OC)c(OC)c(OC)c3)CC2=O)cc1
- T/C (dose: 50.0 mg/kg/injection, schedule: Q01DX005 (ip), vehicle: Klucel (hydroxypropylcellulose) (HPC)): 94 % of control
- T/C (dose: 100.0 mg/kg/injection, schedule: Q01DX005 (ip), vehicle: Klucel (hydroxypropylcellulose) (HPC)): 89 % of control
- T/C (dose: 200.0 mg/kg/injection, schedule: Q01DX005 (ip), vehicle: Klucel (hydroxypropylcellulose) (HPC)): 90 % of control

Compound: COc1cc(NCC(C)(O)CN(CC(C)C)CC(C)C)c2ncccc2c1 (stereo not drawn)
- T/C (dose: 12.5 mg/kg/injection, schedule: Q01DX005 (ip), vehicle: saline): 106 % of control
- T/C (dose: 25.0 mg/kg/injection, schedule: Q01DX005 (ip), vehicle: saline): 106 % of control
- T/C [3]: 112 % of control and 97 % of control

Compound: C[n+]1ccc(I)c2ccc(Cl)cc21
- T/C [4]: 101 % of control
- T/C (dose: 25.0 mg/kg/injection, schedule: Q01DX009 (ip), vehicle: Klucel (hydroxypropylcellulose) (HPC)): 104 % of control
- T/C (dose: 50.0 mg/kg/injection, schedule: Q01DX009 (ip), vehicle: Klucel (hydroxypropylcellulose) (HPC)): 109 % of control

Compound: Nc1c(S(=O)(=O)O)cc(Nc2cccc(S(=O)(=O)/C=C/S(=O)(=O)O)c2)c2c1C(=O)c1ccccc1C2=O
- T/C [5]: 99 % of control
- T/C [6]: 104 % of control
- T/C [7]: 111 % of control

Compound: CS(=O)(=O)CC#N
- T/C (dose: 7.5 mg/kg/injection, schedule: Q01DX005 (ip), vehicle: saline): 96 % of control
- T/C (dose: 15.0 mg/kg/injection, schedule: Q01DX005 (ip), vehicle: saline): 100 % of control
- T/C (dose: 30.0 mg/kg/injection, schedule: Q01DX005 (ip), vehicle: saline): 95 % of control

Compound: CC1=C(C)C(=O)C(C(C)(C)CC(=O)N(C)/N=N/c2nc[nH]c2C(N)=O)=C(C)C1=O
- T/C (dose: 100.0 mg/kg/injection, schedule: Q01DX005 (ip), vehicle: saline with Tween-80): 155 % of control
- T/C (dose: 200.0 mg/kg/injection, schedule: Q01DX005 (ip), vehicle: saline with Tween-80): 174 % of control

Compound: CCCN1CC=CCC1
- T/C [5]: 100 % of control
- T/C [6]: 100 % of control
- T/C [7]: 100 % of control

Compound: COC(=O)C(CSCc1ccccc1)NC(=O)c1csc(CCNC(=O)c2ccccc2)n1 (stereo not drawn)
- T/C (dose: 12.5 mg/kg/injection, schedule: Q01DX009 (ip), vehicle: DMSO): 99 % of control
- T/C (dose: 25.0 mg/kg/injection, schedule: Q01DX009 (ip), vehicle: DMSO): 99 % of control
- T/C (dose: 50.0 mg/kg/injection, schedule: Q01DX009 (ip), vehicle: DMSO): 100 % of control
- T/C (dose: 100.0 mg/kg/injection, schedule: Q01DX009 (ip), vehicle: DMSO): 101 % of control
- T/C (dose: 200.0 mg/kg/injection, schedule: Q01DX009 (ip), vehicle: DMSO): 96 % of control

Compound: CC(=O)[C@]1(O)Cc2c(O)c3c(c(O)c2C(OC2CC(N=[N+]=[N-])C(O)[C@@H](CN=[N+]=[N-])O2)C1)C(=O)c1c(O)cccc1C3=O (stereo partly drawn)
- T/C (dose: 3.13 mg/kg/injection, schedule: Q04DX003 (ip), vehicle: saline with Tween-80): 93 % of control
- T/C (dose: 6.25 mg/kg/injection, schedule: Q04DX003 (ip), vehicle: saline with Tween-80): 93 % of control
- T/C (dose: 12.5 mg/kg/injection, schedule: Q04DX003 (ip), vehicle: saline with Tween-80): 96 % of control
- T/C (dose: 25.0 mg/kg/injection, schedule: Q04DX003 (ip), vehicle: saline with Tween-80): 96 % of control
- T/C [8]: 91 % of control
- T/C [1]: 105 % of control

Compound: CC[C@@]1(O)C[C@H](OC2CC(N(C)C)C(OC3CC(O)C(OC4CC(O)C(O)C(C)O4)C(C)O3)C(C)O2)c2c(cc3c(c2O)C(=O)c2c(O)ccc(O)c2C3=O)[C@H]1C(=O)OC (stereo partly drawn)
- T/C (dose: 1.8 mg/kg/injection, schedule: Q04DX003 (ip), vehicle: water): 157 % of control
- T/C (dose: 2.7 mg/kg/injection, schedule: Q04DX003 (ip), vehicle: water): 155 % of control
- T/C (dose: 3.8 mg/kg/injection, schedule: Q01DX001 (ip), vehicle: other): 163 % of control
- T/C (dose: 7.5 mg/kg/injection, schedule: Q01DX001 (ip), vehicle: other): 157 % of control

Compound: CCS1=C(C(C)=O)C(=O)O[C@H](C)C1 (stereo partly drawn)
- T/C [3]: 100 % of control
- T/C (dose: 100.0 mg/kg/injection, schedule: Q01DX005 (ip), vehicle: saline): 98 % of control
- T/C (dose: 200.0 mg/kg/injection, schedule: Q01DX005 (ip), vehicle: saline): 115 % of control

Compound: CC(C)c1cccc(C(C)C)c1Oc1ccc([N+](=O)[O-])cc1[N+](=O)[O-]
- T/C [8]: 94 % of control
- T/C [1]: 93 % of control
- T/C (dose: 200.0 mg/kg/injection, schedule: Q04DX003 (ip), vehicle: saline with Tween-80): 92 % of control
- T/C [2]: 90 % of control

Compound: Cn1nc(-c2ccc(Cl)c(Cl)c2)[n+]([O-])c2c(=O)n(C)c(=O)nc1-2
- T/C (dose: 6.25 mg/kg/injection, schedule: Q01DX009 (ip), vehicle: saline with Tween-80): 120 % of control
- T/C (dose: 12.5 mg/kg/injection, schedule: Q01DX009 (ip), vehicle: saline with Tween-80): 110 % of control and 115 % of control

Compound: O=C1c2ccccc2C(=O)c2c1ccc1c2OCO1
- T/C (dose: 5.0 mg/kg/injection, schedule: Q01DX005 (ip), vehicle: Klucel (hydroxypropylcellulose) (HPC)): 96 % of control
- T/C (dose: 10.0 mg/kg/injection, schedule: Q01DX005 (ip), vehicle: Klucel (hydroxypropylcellulose) (HPC)): 87 % of control
- T/C (dose: 20.0 mg/kg/injection, schedule: Q01DX005 (ip), vehicle: Klucel (hydroxypropylcellulose) (HPC)): 86 % of control and 88 % of control
- T/C (dose: 40.0 mg/kg/injection, schedule: Q01DX005 (ip), vehicle: Klucel (hydroxypropylcellulose) (HPC)): 95 % of control

Compound: NC(CCl)=NCC12CC3CC(CC(C3)C1)C2
- T/C [4]: 90 % of control

Compound: CN(C)c1ccc2nc3c(cc(Nc4cccc5cccc(Nc6cc7ccccc7c7nc8ccc(N(C)C)cc8[o+]c67)c45)c4ccccc43)[o+]c2c1
- T/C (dose: 60.0 mg/kg/injection, schedule: Q01DX005 (ip), vehicle: saline with Tween-80): 90 % of control
- T/C (dose: 120.0 mg/kg/injection, schedule: Q01DX005 (ip), vehicle: saline with Tween-80): 100 % of control
- T/C (dose: 240.0 mg/kg/injection, schedule: Q01DX005 (ip), vehicle: saline with Tween-80): 91 % of control

Compound: CC(C)C1=CC23CCC4C(C)(C(N)=O)CCCC4(C)C2CC1C1C(=O)OC(=O)C13 (stereo not drawn)
- T/C (dose: 100.0 mg/kg/injection, schedule: Q01DX001 (ip), vehicle: saline with Tween-80): 91 % of control

Compound: CSC(=S)/C(=C/Nc1ncccn1)c1ccccc1
- T/C (dose: 30.0 mg/kg/injection, schedule: Q01DX005 (ip), vehicle: Klucel (hydroxypropylcellulose) (HPC)): 87 % of control
- T/C (dose: 120.0 mg/kg/injection, schedule: Q01DX005 (ip), vehicle: Klucel (hydroxypropylcellulose) (HPC)): 89 % of control

Compound: O=C1C=C/C(=C\c2cccc(Cl)c2)O1
- T/C (dose: 100.0 mg/kg/injection, schedule: Q01DX002 (ip), vehicle: Klucel (hydroxypropylcellulose) (HPC)): 103 % of control
- T/C (dose: 200.0 mg/kg/injection, schedule: Q01DX002 (ip), vehicle: Klucel (hydroxypropylcellulose) (HPC)): 107 % of control
- T/C (dose: 400.0 mg/kg/injection, schedule: Q01DX002 (ip), vehicle: Klucel (hydroxypropylcellulose) (HPC)): 103 % of control

Compound: C(=C\c1cccs1)/c1ccnnc1
- T/C (dose: 25.0 mg/kg/injection, schedule: Q01DX009 (ip), vehicle: saline): 101 % of control
- T/C (dose: 50.0 mg/kg/injection, schedule: Q01DX009 (ip), vehicle: saline): 99 % of control
- T/C (dose: 100.0 mg/kg/injection, schedule: Q01DX009 (ip), vehicle: saline): 86 % of control and 96 % of control

Compound: Cc1cc(C(=O)Nc2ccc(NC3=NCCN3)cc2)cc(C(=O)Nc2ccc(NC3=NCCN3)cc2)c1
- T/C (dose: 3.12 mg/kg/injection, schedule: Q01DX005 (ip), vehicle: saline with Tween-80): 100 % of control
- T/C (dose: 6.25 mg/kg/injection, schedule: Q01DX005 (ip), vehicle: saline with Tween-80): 107 % of control
- T/C (dose: 12.5 mg/kg/injection, schedule: Q01DX005 (ip), vehicle: saline with Tween-80): 106 % of control

Compound: CC(C)Cn1c(Cl)c(C=O)c2ccccc21
- T/C (dose: 100.0 mg/kg/injection, schedule: Q04DX002 (ip), vehicle: Klucel (hydroxypropylcellulose) (HPC)): 101 % of control
- T/C (dose: 200.0 mg/kg/injection, schedule: Q04DX002 (ip), vehicle: Klucel (hydroxypropylcellulose) (HPC)): 97 % of control
- T/C (dose: 400.0 mg/kg/injection, schedule: Q04DX002 (ip), vehicle: Klucel (hydroxypropylcellulose) (HPC)): 90 % of control

From PubChem BioAssay AID330 (DTP/NCI, 2004)
